Measured values reported in patent EP4596566A1, “COMPOUND PRODUCTION METHOD” (The University of Tokyo, priority 2022, dated 2024).
*1 amine or outer side, *2 acyl side, *3 side chain or, on linkers, in order; H or OH if unused. Where a SMILES comes first, the peptide text is derived from it. Bridges are numbered along the chain shown (N, C = ends). [ ]: non-standard residue; d: D form. The star is where a group is joined. X2 = C=C(N[*:2])c1nc(-c2nc(-c3nc(C(=O)NCCC(=O)NCCOCCOCCCCCCCl)cs3)ccc2C(=O)[*:1])cs1; X1 = C=C(N[*:2])c1nc(-c2nc(-c3nc(C(=O)OC)cs3)ccc2C(=O)[*:1])cs1; Nle = CCCC[C@H](N)C(=O)O; Dhb = C/C=C(\N)C(=O)O; Cam = NC(=O)C*

How the values were obtained:
[1] = test system: NFkB reporter gene activity; assay: NFkB reporter gene assay in THP1-XBlue stable cell line; assay type: cell-based; details: read-out: inhibition (IC50) of NFkB reporter gene activity
[2] = target: TNIK (Homo sapiens, UniProt Q9UKE5); assay: Surface plasmon resonance (SPR) binding affinity to TNIK; details: ATP 1 mM, 15-fold higher than KM
Chain of TNIK (Q9UKE5 whole entry): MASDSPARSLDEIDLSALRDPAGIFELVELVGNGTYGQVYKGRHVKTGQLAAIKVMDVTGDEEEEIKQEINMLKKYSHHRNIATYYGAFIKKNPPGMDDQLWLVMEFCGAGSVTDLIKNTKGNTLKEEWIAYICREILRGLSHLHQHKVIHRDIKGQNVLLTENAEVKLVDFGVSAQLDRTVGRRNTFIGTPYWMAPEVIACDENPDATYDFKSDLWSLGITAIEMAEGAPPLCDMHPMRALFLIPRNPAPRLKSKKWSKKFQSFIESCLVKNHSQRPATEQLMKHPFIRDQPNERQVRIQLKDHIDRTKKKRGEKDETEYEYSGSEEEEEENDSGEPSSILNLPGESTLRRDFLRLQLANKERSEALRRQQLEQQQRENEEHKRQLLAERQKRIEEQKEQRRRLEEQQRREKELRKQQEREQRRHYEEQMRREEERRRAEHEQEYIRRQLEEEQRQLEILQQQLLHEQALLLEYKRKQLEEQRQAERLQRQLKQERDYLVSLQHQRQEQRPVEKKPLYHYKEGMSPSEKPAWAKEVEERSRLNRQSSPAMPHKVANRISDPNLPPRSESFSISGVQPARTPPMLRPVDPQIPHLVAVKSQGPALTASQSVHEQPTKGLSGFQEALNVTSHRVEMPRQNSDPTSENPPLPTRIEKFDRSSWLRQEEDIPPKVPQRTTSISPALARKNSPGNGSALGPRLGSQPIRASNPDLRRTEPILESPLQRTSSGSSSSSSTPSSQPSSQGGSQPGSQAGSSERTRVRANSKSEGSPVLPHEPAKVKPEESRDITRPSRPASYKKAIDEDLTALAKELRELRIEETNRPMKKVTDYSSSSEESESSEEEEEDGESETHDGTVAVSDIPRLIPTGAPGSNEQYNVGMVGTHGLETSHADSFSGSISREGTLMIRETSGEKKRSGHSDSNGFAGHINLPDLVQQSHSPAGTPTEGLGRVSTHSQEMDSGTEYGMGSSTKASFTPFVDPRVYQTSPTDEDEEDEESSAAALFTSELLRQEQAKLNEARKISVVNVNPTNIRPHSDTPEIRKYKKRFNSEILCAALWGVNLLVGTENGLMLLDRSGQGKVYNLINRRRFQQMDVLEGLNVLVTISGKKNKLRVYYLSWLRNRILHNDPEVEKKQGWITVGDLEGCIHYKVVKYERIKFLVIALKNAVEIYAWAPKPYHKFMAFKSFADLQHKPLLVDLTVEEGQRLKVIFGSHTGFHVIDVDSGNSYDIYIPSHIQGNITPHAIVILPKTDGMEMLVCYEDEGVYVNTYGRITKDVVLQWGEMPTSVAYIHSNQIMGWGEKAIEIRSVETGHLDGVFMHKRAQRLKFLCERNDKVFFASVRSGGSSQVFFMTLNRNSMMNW
Excerpt: Surface plasmon resonance (SPR) was used to evaluate the binding affinity of the thiopeptide synthesized in Example 2 to TNIK.

[3] = Metabolic stability in human serum at 37°C, LC/MS; assay type: in vitro ADME
Protocol: The compounds were incubated with a human serum at 37°C, and the amount of the residual test substance at various points in time was quantified by LC/MS with respect to an internal standard substance. […] Next, it was examined whether or not the half-lives of the compounds were affected by the reactivity of the Dha residue. The Dha residue may be conjugated with various serum thiols.
In addition, the metabolic stability of all of the 14 types of candidate thiopeptides was examined. The compound was incubated with the human serum at 37°C, and the amount of the residual thiopeptide at various points in time was quantified by LC/MS with respect to the internal standard substance. The half-life of the thiopeptide for TLR10 was generally as long as 38.2 hours, and the thiopeptide was stable.

[4] = target: T1, IRAK4 (Homo sapiens, UniProt Q9NWZ3); assay: Surface plasmon resonance (SPR) binding affinity to IRAK4
T1 sequence (Q9NWZ3 1-460): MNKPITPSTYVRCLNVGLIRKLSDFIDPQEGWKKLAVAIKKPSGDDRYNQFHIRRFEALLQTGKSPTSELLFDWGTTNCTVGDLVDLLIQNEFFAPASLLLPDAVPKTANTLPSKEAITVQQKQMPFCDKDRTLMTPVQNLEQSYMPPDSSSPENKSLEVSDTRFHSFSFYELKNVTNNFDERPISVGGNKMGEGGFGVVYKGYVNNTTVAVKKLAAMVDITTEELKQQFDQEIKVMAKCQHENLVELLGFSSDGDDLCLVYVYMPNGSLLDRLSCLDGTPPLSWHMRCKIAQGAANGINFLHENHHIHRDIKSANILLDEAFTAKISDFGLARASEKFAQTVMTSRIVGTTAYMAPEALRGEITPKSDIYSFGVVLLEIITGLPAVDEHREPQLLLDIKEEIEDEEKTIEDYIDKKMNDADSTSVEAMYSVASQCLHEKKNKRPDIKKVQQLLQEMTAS
Protocol: Next, the binding affinity of each of the synthesized thiopeptides (14 types excluding IR1-ct and IR15-ct in Figure 8) to the target IRAK4 and TLR10 was examined using surface plasmon resonance (SPR). […] Next, using an ADP-Glo-based kinase inhibition assay, the IC50 values of 4 types of thiopeptides for IRAK4 excluding IR1-ct and IR15-ct were evaluated.

Compound	IC50 [1]	half-life (τ1/2) in human serum [3]	other results
C=C1NC(=O)[C@H](CCCCN)NC(=O)[C@H](Cc2ccc(O)cc2)NC(=O)[C@H]([C@@H](C)CC)NC(=O)[C@H](CCCNC(=N)N)NC(=O)[C@H](CCCNC(=N)N)NC(=O)[C@H](CCCCN)NC(=O)[C@H](Cc2ccccc2)NC(=O)[C@H](CC(C)C)NC(=O)[C@H](CCSC)NC(=O)[C@H](CO)NC(=O)[C@H](Cc2c[nH]c3ccccc23)NC(=O)c2ccc(-c3nc(C(=O)NCCC(=O)NCCOCCOCCCCCCCl)cs3)nc2-c2csc1n2 [IR1-ct] (WSMLFKRRIYK; linker N-C via X2)	7.8 µM		
C=C1NC(=O)CNC(=O)[C@H](CC(N)=O)NC(=O)[C@H](CC(C)C)NC(=O)CNC(=O)[C@H](CCCCN)NC(=O)[C@H](C)NC(=O)[C@H]([C@@H](C)CC)NC(=O)[C@H](CO)NC(=O)[C@H](Cc2c[nH]c3ccccc23)NC(=O)[C@H](C)NC(=O)[C@H](Cc2c[nH]c3ccccc23)NC(=O)c2ccc(-c3nc(C(=O)OC)cs3)nc2-c2csc1n2 [TP8] (WAWSIAKGLNG; linker N-C via X1)		14 h	binding to TNIK in the presence of the saturated concentration of ATP [2]: bonded to TNIK
C=C1NC(=O)[C@H](CO)NC(=O)[C@H](CSCC(N)=O)NC(=O)CNC(=O)[C@H](Cc2ccc(O)cc2)NC(=O)[C@H](C)NC(=O)[C@H](CO)NC(=O)[C@H](CC(=O)O)NC(=O)CNC(=O)[C@H](CC(C)C)NC(=O)[C@H](Cc2c[nH]c3ccccc23)NC(=O)[C@H](Cc2c[nH]c3ccccc23)NC(=O)c2ccc(-c3nc(C(=O)OC)cs3)nc2-c2csc1n2 [TP4] (WWLGDSAYGC(Cam)S; linker N-C via X1)		88 h	
C=C1NC(=O)[C@H](CCCCN)NC(=O)[C@H](Cc2ccc(O)cc2)NC(=O)[C@H]([C@@H](C)CC)NC(=O)[C@H](CCCNC(=N)N)NC(=O)[C@H](CCCNC(=N)N)NC(=O)[C@H](CCCCN)NC(=O)[C@H](Cc2ccccc2)NC(=O)[C@H](CC(C)C)NC(=O)[C@H](CCSC)NC(=O)[C@H](CO)NC(=O)[C@H](Cc2c[nH]c3ccccc23)NC(=O)c2ccc(-c3nc(C(=O)OC)cs3)nc2-c2csc1n2 [IR1] (WSMLFKRRIYK; linker N-C via X1)			Kd [4]: 0.0013 µM
C=C1NC(=O)/C(=C/C)NC(=O)[C@H](Cc2c[nH]c3ccccc23)NC(=O)[C@H](Cc2c[nH]cn2)NC(=O)[C@H](Cc2c[nH]c3ccccc23)NC(=O)[C@H]([C@@H](C)O)NC(=O)[C@H]([C@@H](C)CC)NC(=O)[C@H](Cc2ccccc2)NC(=O)[C@H](CCC(N)=O)NC(=O)[C@H](CCCNC(=N)N)NC(=O)[C@H](CCCCN)NC(=O)[C@H](CCCC)NC(=O)[C@H](CO)NC(=O)[C@H](Cc2c[nH]c3ccccc23)NC(=O)c2ccc(-c3nc(C(=O)NCCC(=O)NCCOCCOCCCCCCCl)cs3)nc2-c2csc1n2 [IR15-ct] (WS[Nle]KRQFITWHW[Dhb]; linker N-C via X2)	7 µM		
